# Data published in patent publication US20140073801A1, “PYRROLIDINE DERIVATIVES AS SELECTIVE GLYCOSIDASE INHIBITORS AND USES THEREOF” (Summit Corporation Plc, priority 2011, published 2014).
# Experiments:
# Type in all cases: biochemical
# [1] = system: human β-hexosaminidase [human placenta] (HexA/B); assay: Determination of IC50 values for inhibition of human β-hexosaminidase; conditions: ratio
# Description: (§1) Inhibitors identified from the screen described in Example 1 were evaluated for IC50 against human β-hexosaminidase [human placenta, Sigma-Aldrich] using a range of inhibitor concentrations from 300 μM to 0.003 μM or 100 μM to 0.001 μM and the following reaction conditions:
# (§2) Reactions were carried out at room temperature for thirty minutes and then quenched through the addition of 150 μl 0.5M Na2CO3. Fluorescence readings were taken at excitation wavelength 360 nm and emission wavelength 450 nm. IC50 values were calculated using XLFit 4. The selectivity ratio for inhibition of human O-GlcNAcase over human β-hexosaminidase is defined here as:
# (§3) IC50(human β-hexosaminidase)/IC50(Human OGA)
# [2] = target: T1, human β-hexosaminidase [human placenta] (HexA/B); assay: as above; conditions: human β-hexosaminidase, human placenta; room temperature, thirty minutes
# T1 construct: other: human β-hexosaminidase, human placenta; room temperature, thirty minutes
# Description: as §1, §2, §3
# human OGA = target: T2, human OGA (Homo sapiens, UniProt O60502); assay: Determination of IC50 values for inhibition of human OGA
# T2 construct: made in house
# T2 sequence (O60502 1-916): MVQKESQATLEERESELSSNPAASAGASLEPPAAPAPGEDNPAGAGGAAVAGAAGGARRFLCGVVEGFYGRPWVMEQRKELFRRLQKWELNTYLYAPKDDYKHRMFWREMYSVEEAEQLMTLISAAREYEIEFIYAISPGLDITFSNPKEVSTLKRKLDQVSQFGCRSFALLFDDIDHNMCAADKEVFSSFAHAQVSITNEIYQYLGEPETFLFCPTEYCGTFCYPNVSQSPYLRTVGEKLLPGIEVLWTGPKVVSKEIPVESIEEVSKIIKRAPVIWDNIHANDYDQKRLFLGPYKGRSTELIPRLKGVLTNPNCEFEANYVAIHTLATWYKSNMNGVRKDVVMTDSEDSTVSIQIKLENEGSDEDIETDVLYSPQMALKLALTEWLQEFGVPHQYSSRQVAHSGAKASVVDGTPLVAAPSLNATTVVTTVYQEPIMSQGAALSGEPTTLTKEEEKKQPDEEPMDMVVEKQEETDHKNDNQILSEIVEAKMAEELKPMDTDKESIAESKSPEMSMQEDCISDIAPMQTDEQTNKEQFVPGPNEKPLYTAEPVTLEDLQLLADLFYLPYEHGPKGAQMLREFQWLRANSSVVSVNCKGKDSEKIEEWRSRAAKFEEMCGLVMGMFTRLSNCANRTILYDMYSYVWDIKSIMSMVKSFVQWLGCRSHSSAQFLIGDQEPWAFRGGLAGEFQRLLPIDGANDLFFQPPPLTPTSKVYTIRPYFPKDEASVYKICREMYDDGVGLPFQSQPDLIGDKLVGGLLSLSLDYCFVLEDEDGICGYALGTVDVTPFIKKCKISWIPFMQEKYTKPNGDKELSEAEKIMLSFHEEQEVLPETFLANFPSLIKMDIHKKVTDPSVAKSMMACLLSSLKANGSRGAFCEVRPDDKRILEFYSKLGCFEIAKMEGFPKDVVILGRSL
# Description: Inhibitors identified from the screen described in Example 1 were evaluated for IC50 using a procedure adapted from Biochem. J. 2009, 420, 221-227. IC50 determination was carried out using a range of inhibitor concentrations from 300 μM to 0.003 μM or 100 μM to 0.001 μM. IC50 values were calculated using XLFit 4.
SMILES,Selectivity: IC50(human β-hexosaminidase)/IC50(Human OGA) [1],IC50 [2] [µM],IC50 (human OGA) [µM]
"CCCCCCN1[C@H](CO)[C@@H](O)[C@H](O)[C@@H]1CC(=O)NCC [Compound A054, N-ethyl-2-((2S,3R,4R,5R)-1-hexyl-3,4-dihydroxy-5-(hydroxymethyl)pyrrolidin-2-yl)acetamide]",>42.98,> 300,6.98
"CCCCCCCCCN1[C@H](CC(=O)NC)[C@H](O)[C@H](O)[C@H]1CO [Compound A011, 2-((2R,3S,4R,5R)-3,4-dihydroxy-5-(hydroxymethyl)-1-nonylpyrrolidin-2-yl)-N-methylacetamide]",>9174,> 300,0.033
"O=C(C[C@H]1N[C@H](CO)[C@@H](O)[C@H]1O)NC1CC1 [Compound A048, N-cyclopropyl-2-((2R,3S,4R,5R)-3,4-dihydroxy-5-(hydroxymethyl)pyrrolidin-2-yl)acetamide]",>12.6,> 300,23.8
"CNC(=O)C[C@@H]1N[C@H](CO)[C@@H](O)[C@@H]1O [Compound A045, 2-((2S,3R,4R,5R)-3,4-dihydroxy-5-(hydroxymethyl)pyrrolidin-2-yl)-N-methylacetamide]",4.71,2.76,0.586
"C=CCNC(=O)C[C@@H]1[C@H](O)[C@H](O)[C@@H](CO)N1CCCCCC [Compound A039, N-allyl-2-((2R,3S,4R,5R)-1-hexyl-3,4-dihydroxy-5-(hydroxymethyl)pyrrolidin-2-yl)acetamide]",>188.68,> 300,1.59
"CC(=O)NC[C@@H]1[C@H](O)[C@H](O)[C@@H](CO)N1CCCc1ccccc1 [Compound A038, N-(((2R,3S,4R,5R)-3,4-dihydroxy-5-(hydroxymethyl)-1-(3-phenylpropyl)pyrrolidin-2-yl)methyl)acetamide]",>230,> 300,1.3
"CCCCCCN1[C@H](CC(=O)NC)[C@@H](O)[C@H](O)[C@@H]1CO [Compound A056, 2-((2R,3R,4R,5S)-1-hexyl-3,4-dihydroxy-5-(hydroxymethyl)pyrrolidin-2-yl)-N-methylacetamide]",0.02,0.0107,0.58
"CCCCCCN1[C@H](CNC(C)=O)[C@H](O)[C@H](O)[C@H]1CO [Compound A035, N-(((2R,3S,4R,5R)-1-hexyl-3,4-dihydroxy-5-(hydroxymethyl)pyrrolidin-2-yl)methyl)acetamide]",>76.92,> 300,3.9
"CNC(=O)C[C@@H]1[C@H](O)[C@H](O)[C@@H](CO)N1CCCCCCO [Compound A040, 2-((2R,3S,4R,5R)-3,4-dihydroxy-1-(6-hydroxyhexyl)-5-(hydroxymethyl)pyrrolidin-2-yl)-N-methylacetamide]",3355,151,0.045
"CCCCCCN1[C@H](CC(=O)NC)[C@H](O)[C@@H](O)[C@@H]1CO [Compound A032, 2-((2R,3S,4S,5S)-1-hexyl-3,4-dihydroxy-5-(hydroxymethyl)pyrrolidin-2-yl)-N-methylacetamide]",>49.4,> 300,6.07
"CCCCCCN1[C@H](CO)[C@@H](O)[C@@H](O)[C@@H]1CC(=O)NC [Compound A034, 2-((2S,3S,4R,5R)-1-hexyl-3,4-dihydroxy-5-(hydroxymethyl)pyrrolidin-2-yl)-N-methylacetamide]",>4.41,> 300,68
"CCCCN1[C@H](CC(=O)NC)[C@H](O)[C@H](O)[C@H]1CO [Compound A017, 2-((2R,3S,4R,5R)-1-butyl-3,4-dihydroxy-5-(hydroxymethyl)pyrrolidin-2-yl)-N-methylacetamide]",3500,196,0.056
"CCNC(=O)C[C@H]1N[C@H](CO)[C@@H](O)[C@H]1O [Compound A006, 2-((2R,3S,4R,5R)-3,4-dihydroxy-5-(hydroxymethyl)pyrrolidin-2-yl)-N-ethylacetamide]",>234,> 300,1.25
"CCNC(=O)C[C@@H]1N[C@H](CO)[C@@H](O)[C@@H]1O [Compound A051, 2-((2S,3R,4R,5R)-3,4-dihydroxy-5-(hydroxymethyl)pyrrolidin-2-yl)-N-ethylacetamide]",>10.43,> 300,28.8
"CNC(=O)C[C@@H]1[C@H](O)[C@H](O)[C@@H](CO)N1CCCNS(=O)(=O)c1ccc(-c2ccccc2)cc1 [Compound A072, 2-((2R,3S,4R,5R)-1-(3-([1,1′-biphenyl]-4-ylsulfonamido)propyl)-3,4-dihydroxy-5-(hydroxymethyl)pyrrolidin-2-yl)-N-methylacetamide]",>150000,> 300,0.002
"CC(=O)NC[C@H]1N[C@H](CO)[C@@H](O)[C@H]1O [Compound A033, N-(((2R,3S,4R,5R)-3,4-dihydroxy-5-(hydroxymethyl)pyrrolidin-2-yl)methyl)acetamide]",>178.57,> 300,1.68
"CCCCCCN1[C@H](CO)[C@@H](O)[C@H](O)[C@@H]1CC(=O)NC [Compound A047, 2-((2S,3R,4R,5R)-1-hexyl-3,4-dihydroxy-5-(hydroxymethyl)pyrrolidin-2-yl)-N-methylacetamide]",0.44,0.405,0.926
"CNC(=O)C[C@@H]1[C@@H](O)[C@H](O)[C@H](CO)N1CCCc1ccccc1 [Compound A058, 2-((2R,3R,4R,5S)-3,4-dihydroxy-5-(hydroxymethyl)-1-(3-phenylpropyl)pyrrolidin-2-yl)-N-methylacetamide]",0.14,0.031,0.228
"CCCCCCCCCN1[C@H](CC(=O)NC(C)C)[C@H](O)[C@H](O)[C@H]1CO [Compound A014, 2-((2R,3S,4R,5R)-3,4-dihydroxy-5-(hydroxymethyl)-1-nonylpyrrolidin-2-yl)-N-isopropylacetamide]",>81,> 300,3.66
"CCNC(=O)C[C@@H]1[C@@H](O)[C@H](O)[C@@H](CO)N1CCCc1ccc(Sc2ccccc2)cc1 [Compound A071, 2-((2R,3R,4R,5R)-3,4-dihydroxy-5-(hydroxymethyl)-1-(3-(4-(phenylthio)phenyl)propyl)pyrrolidin-2-yl)-N-ethylacetamide]",>42857,> 300,0.007
"CCCCCCN1[C@H](CC(=O)NCCO)[C@H](O)[C@H](O)[C@H]1CO [Compound A028, 2-((2R,3S,4R,5R)-1-hexyl-3,4-dihydroxy-5-(hydroxymethyl)pyrrolidin-2-yl)-N-(2-hydroxyethyl)acetamide]",>1.39,≥ 300,215
"CCNC(=O)C[C@@H]1[C@@H](O)[C@H](O)[C@@H](CO)N1CCCc1ccc(S(=O)(=O)NCC)cc1 [Compound A070, N-ethyl-2-((2R,3R,4R,5R)-1-(3-(4-(N-ethylsulfamoyl)phenyl)propyl)-3,4-dihydroxy-5-(hydroxymethyl)pyrrolidin-2-yl)acetamide]",22133,166,0.0075
"CCCCCCN1[C@H](CC(=O)NCCC)[C@H](O)[C@H](O)[C@H]1CO [Compound A023, 2-((2R,3S,4R,5R)-1-hexyl-3,4-dihydroxy-5-(hydroxymethyl)pyrrolidin-2-yl)-N-propylacetamide]",>6211,> 300,0.048
